Data reported in patent US12097241B2, “Methods of treating kidney failure, and/or improving or stablizing renal function using modified relaxin polypeptides” (BRISTOL-MYERS SQUIBB COMPANY, priority 2017, dated 2024).

Biological target: T1, human RXFP1 receptor (Homo sapiens, UniProt Q9HBX9)
T1 construct: expressed in transfected cells
T1 sequence (Q9HBX9 1-757): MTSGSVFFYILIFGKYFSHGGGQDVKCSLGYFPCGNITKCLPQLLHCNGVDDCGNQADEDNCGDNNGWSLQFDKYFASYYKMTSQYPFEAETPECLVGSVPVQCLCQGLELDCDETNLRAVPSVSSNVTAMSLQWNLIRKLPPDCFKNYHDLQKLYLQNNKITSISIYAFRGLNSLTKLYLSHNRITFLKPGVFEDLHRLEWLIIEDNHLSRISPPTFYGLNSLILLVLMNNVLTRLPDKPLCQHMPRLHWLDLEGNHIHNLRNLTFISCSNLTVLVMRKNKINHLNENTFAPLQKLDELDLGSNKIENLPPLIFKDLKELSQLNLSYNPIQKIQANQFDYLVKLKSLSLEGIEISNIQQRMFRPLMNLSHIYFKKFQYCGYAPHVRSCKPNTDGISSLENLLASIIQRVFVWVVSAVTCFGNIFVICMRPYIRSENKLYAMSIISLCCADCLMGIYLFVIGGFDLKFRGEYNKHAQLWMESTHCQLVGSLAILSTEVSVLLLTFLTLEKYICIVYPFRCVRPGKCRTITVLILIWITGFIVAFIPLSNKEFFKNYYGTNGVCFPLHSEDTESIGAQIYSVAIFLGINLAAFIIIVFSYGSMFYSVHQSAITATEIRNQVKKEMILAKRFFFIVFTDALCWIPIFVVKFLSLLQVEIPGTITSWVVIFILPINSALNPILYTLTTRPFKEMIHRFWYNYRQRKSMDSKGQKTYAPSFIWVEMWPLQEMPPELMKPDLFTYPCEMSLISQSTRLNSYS
Test: Intracellular cAMP accumulation assay
Type: cell-based

Compound	EC50 [nM]
CC[C@H](C)[C@@H]1NC(=O)[C@H](C)NC(=O)[C@H]([C@@H](C)CC)NC(=O)[C@H](CCC(N)=O)NC(=O)[C@H](C)NC(=O)[C@H](CCCNC(=N)N)NC(=O)[C@H](C(C)C)NC(=O)[C@H](CC(C)C)NC(=O)[C@H](CCC(=O)O)NC(=O)[C@H](CCCNC(=N)N)NC(=O)CNC(=O)[C@@H](NC(=O)[C@H](CC(C)C)NC(=O)[C@H](CCCCN)NC(=O)[C@@H](NC(=O)[C@@H](NC(=O)[C@H](CCC(=O)O)NC(=O)[C@H](CCC(=O)O)NC(=O)[C@H](CCSC)NC(=O)[C@H](Cc2c[nH]c3ccccc23)NC(=O)[C@H](CO)NC(=O)[C@H](C)N)C(C)C)[C@@H](C)CC)CSSC[C@@H]2NC(=O)[C@@H](NC(=O)[C@H](CCCCN)NC(=O)[C@H](CC(N)=O)NC(=O)[C@H](C)NC(=O)[C@H](CC(C)C)NC(=O)[C@H](C)NC(=O)[C@H](CO)NC(=O)[C@H](Cc3ccc(O)cc3)NC(=O)[C@H](CC(C)C)NC(=O)[C@@H](N)Cc3ccc(C(C)=NOCCNC(=O)[C@H](CCCCN)NC(=O)[C@H](CCCCN)NC(=O)[C@H](CO)NC(=O)CNC(=O)CNC(=O)[C@H](CO)NC(=O)CNC(=O)CNC(=O)CC[C@H](NC(=O)CCCCCCCCCCCCC(=O)O)C(=O)O)cc3)CSSC[C@H](NC(=O)CNC(=O)[C@H](C(C)C)NC(=O)[C@H](Cc3c[nH]cn3)NC2=O)C(=O)N[C@@H]([C@@H](C)O)C(=O)N[C@@H](CCCCN)C(=O)N[C@@H](CCCNC(=N)N)C(=O)N[C@@H](CO)C(=O)N[C@@H](CC(C)C)C(=O)N[C@@H](C)C(=O)N[C@@H](CCCNC(=N)N)C(=O)N[C@@H](Cc2ccccc2)C(=O)N[C@H](C(=O)O)CSSC[C@@H](C(=O)NCC(=O)N[C@@H](CCSC)C(=O)N[C@@H](CO)C(=O)N[C@H](C(=O)N[C@@H](Cc2c[nH]c3ccccc23)C(=O)N[C@@H](CO)C(=O)O)[C@@H](C)O)NC1=O [AQ1-KKSGGSGG-Glu^γ-C13-COOH]	0.34
CC[C@H](C)[C@@H]1NC(=O)[C@H](C)NC(=O)[C@H]([C@@H](C)CC)NC(=O)[C@H](CCC(N)=O)NC(=O)[C@H](C)NC(=O)[C@H](CCCNC(=N)N)NC(=O)[C@H](C(C)C)NC(=O)[C@H](CC(C)C)NC(=O)[C@H](CCC(=O)O)NC(=O)[C@H](CCCNC(=N)N)NC(=O)CNC(=O)[C@@H](NC(=O)[C@H](CC(C)C)NC(=O)[C@H](CCCCN)NC(=O)[C@@H](NC(=O)[C@@H](NC(=O)[C@H](CCC(=O)O)NC(=O)[C@H](CCC(=O)O)NC(=O)[C@H](CCSC)NC(=O)[C@H](Cc2c[nH]c3ccccc23)NC(=O)[C@H](CO)NC(=O)[C@H](C)N)C(C)C)[C@@H](C)CC)CSSC[C@@H]2NC(=O)[C@@H](NC(=O)[C@H](CCCCN)NC(=O)[C@H](CC(N)=O)NC(=O)[C@H](C)NC(=O)[C@H](CC(C)C)NC(=O)[C@H](C)NC(=O)[C@H](CO)NC(=O)[C@H](Cc3ccc(O)cc3)NC(=O)[C@H](CC(C)C)NC(=O)[C@@H](N)Cc3ccc(/C(C)=N/OCCNC(=O)[C@H](CCCCN)NC(=O)CNC(=O)CNC(=O)CNC(=O)[C@H](CO)NC(=O)CC[C@H](NC(=O)CCCCCCCCCCCCCC(=O)O)C(=O)O)cc3)CSSC[C@H](NC(=O)CNC(=O)[C@H](C(C)C)NC(=O)[C@H](Cc3c[nH]cn3)NC2=O)C(=O)N[C@@H]([C@@H](C)O)C(=O)N[C@@H](CCCCN)C(=O)N[C@@H](CCCNC(=N)N)C(=O)N[C@@H](CO)C(=O)N[C@@H](CC(C)C)C(=O)N[C@@H](C)C(=O)N[C@@H](CCCNC(=N)N)C(=O)N[C@@H](Cc2ccccc2)C(=O)N[C@H](C(=O)O)CSSC[C@@H](C(=O)NCC(=O)N[C@@H](CCSC)C(=O)N[C@@H](CO)C(=O)N[C@H](C(=O)N[C@@H](Cc2c[nH]c3ccccc23)C(=O)N[C@@H](CO)C(=O)O)[C@@H](C)O)NC1=O [AQ1-KGGGS-Glu^γ-C14-COOH]	0.34
CC[C@H](C)[C@@H]1NC(=O)[C@H](C)NC(=O)[C@H]([C@@H](C)CC)NC(=O)[C@H](CCC(N)=O)NC(=O)[C@H](C)NC(=O)[C@H](CCCNC(=N)N)NC(=O)[C@H](C(C)C)NC(=O)[C@H](CC(C)C)NC(=O)[C@H](CCC(=O)O)NC(=O)[C@H](CCCNC(=N)N)NC(=O)CNC(=O)[C@@H](NC(=O)[C@H](CC(C)C)NC(=O)[C@H](CCCCN)NC(=O)[C@@H](NC(=O)[C@@H](NC(=O)[C@H](CCC(=O)O)NC(=O)[C@H](CCC(=O)O)NC(=O)[C@H](CCSC)NC(=O)[C@H](Cc2c[nH]c3ccccc23)NC(=O)[C@H](CO)NC(=O)[C@H](C)N)C(C)C)[C@@H](C)CC)CSSC[C@@H]2NC(=O)[C@@H](NC(=O)[C@H](CCCCN)NC(=O)[C@H](CC(N)=O)NC(=O)[C@H](C)NC(=O)[C@H](CC(C)C)NC(=O)[C@H](C)NC(=O)[C@H](CO)NC(=O)[C@H](Cc3ccc(O)cc3)NC(=O)[C@H](CC(C)C)NC(=O)[C@@H](N)Cc3ccc(C(C)=NOCCNC(=O)[C@H](CCCCN)NC(=O)[C@H](CCCCN)NC(=O)CC[C@H](NC(=O)CCCCCCCCCCCCC(=O)O)C(=O)O)cc3)CSSC[C@H](NC(=O)CNC(=O)[C@H](C(C)C)NC(=O)[C@H](Cc3c[nH]cn3)NC2=O)C(=O)N[C@@H]([C@@H](C)O)C(=O)N[C@@H](CCCCN)C(=O)N[C@@H](CCCNC(=N)N)C(=O)N[C@@H](CO)C(=O)N[C@@H](CC(C)C)C(=O)N[C@@H](C)C(=O)N[C@@H](CCCNC(=N)N)C(=O)N[C@@H](Cc2ccccc2)C(=O)N[C@H](C(=O)O)CSSC[C@@H](C(=O)NCC(=O)N[C@@H](CCSC)C(=O)N[C@@H](CO)C(=O)N[C@H](C(=O)N[C@@H](Cc2c[nH]c3ccccc23)C(=O)N[C@@H](CO)C(=O)O)[C@@H](C)O)NC1=O [AQ1-KK-Glu^γ-C13-COOH]	0.1
CC[C@H](C)[C@@H]1NC(=O)[C@H](C)NC(=O)[C@H]([C@@H](C)CC)NC(=O)[C@H](CCC(N)=O)NC(=O)[C@H](C)NC(=O)[C@H](CCCNC(=N)N)NC(=O)[C@H](C(C)C)NC(=O)[C@H](CC(C)C)NC(=O)[C@H](CCC(=O)O)NC(=O)[C@H](CCCNC(=N)N)NC(=O)CNC(=O)[C@@H](NC(=O)[C@H](CC(C)C)NC(=O)[C@H](CCCCN)NC(=O)[C@@H](NC(=O)[C@@H](NC(=O)[C@H](CCC(=O)O)NC(=O)[C@H](CCC(=O)O)NC(=O)[C@H](CCSC)NC(=O)[C@H](Cc2c[nH]c3ccccc23)NC(=O)[C@H](CO)NC(=O)[C@H](C)N)C(C)C)[C@@H](C)CC)CSSC[C@@H]2NC(=O)[C@@H](NC(=O)[C@H](CCCCN)NC(=O)[C@H](CC(N)=O)NC(=O)[C@H](C)NC(=O)[C@H](CC(C)C)NC(=O)[C@H](C)NC(=O)[C@H](CO)NC(=O)[C@H](Cc3ccc(O)cc3)NC(=O)[C@H](CC(C)C)NC(=O)[C@@H](N)Cc3ccc(C(C)=NOCCNC(=O)[C@H](CCC(=O)O)NC(=O)CNC(=O)CNC(=O)[C@H](CO)NC(=O)CC[C@H](NC(=O)CCCCCCCCCCCCCC(=O)O)C(=O)O)cc3)CSSC[C@H](NC(=O)CNC(=O)[C@H](C(C)C)NC(=O)[C@H](Cc3c[nH]cn3)NC2=O)C(=O)N[C@@H]([C@@H](C)O)C(=O)N[C@@H](CCCCN)C(=O)N[C@@H](CCCNC(=N)N)C(=O)N[C@@H](CO)C(=O)N[C@@H](CC(C)C)C(=O)N[C@@H](C)C(=O)N[C@@H](CCCNC(=N)N)C(=O)N[C@@H](Cc2ccccc2)C(=O)N[C@H](C(=O)O)CSSC[C@@H](C(=O)NCC(=O)N[C@@H](CCSC)C(=O)N[C@@H](CO)C(=O)N[C@H](C(=O)N[C@@H](Cc2c[nH]c3ccccc23)C(=O)N[C@@H](CO)C(=O)O)[C@@H](C)O)NC1=O [AQ1-EGGS-Glu^γ-C14-COOH]	0.33
CC[C@H](C)[C@@H]1NC(=O)[C@H](C)NC(=O)[C@H]([C@@H](C)CC)NC(=O)[C@H](CCC(N)=O)NC(=O)[C@H](C)NC(=O)[C@H](CCCNC(=N)N)NC(=O)[C@H](C(C)C)NC(=O)[C@H](CC(C)C)NC(=O)[C@H](CCC(=O)O)NC(=O)[C@H](CCCNC(=N)N)NC(=O)CNC(=O)[C@@H](NC(=O)[C@H](CC(C)C)NC(=O)[C@H](CCCCN)NC(=O)[C@@H](NC(=O)[C@@H](NC(=O)[C@H](CCC(=O)O)NC(=O)[C@H](CCC(=O)O)NC(=O)[C@H](CCSC)NC(=O)[C@H](Cc2c[nH]c3ccccc23)NC(=O)[C@H](CO)NC(=O)[C@H](C)N)C(C)C)[C@@H](C)CC)CSSC[C@@H]2NC(=O)[C@@H](NC(=O)[C@H](CCCCN)NC(=O)[C@H](CC(N)=O)NC(=O)[C@H](C)NC(=O)[C@H](CC(C)C)NC(=O)[C@H](C)NC(=O)[C@H](CO)NC(=O)[C@H](Cc3ccc(O)cc3)NC(=O)[C@H](CC(C)C)NC(=O)[C@@H](N)Cc3ccc(/C(C)=N/OCCNC(=O)[C@H](CCCCN)NC(=O)CNC(=O)[C@@H]4CCCN4C(=O)CC[C@H](NC(=O)CCCCCCCCCCCCCC(=O)O)C(=O)O)cc3)CSSC[C@H](NC(=O)CNC(=O)[C@H](C(C)C)NC(=O)[C@H](Cc3c[nH]cn3)NC2=O)C(=O)N[C@@H]([C@@H](C)O)C(=O)N[C@@H](CCCCN)C(=O)N[C@@H](CCCNC(=N)N)C(=O)N[C@@H](CO)C(=O)N[C@@H](CC(C)C)C(=O)N[C@@H](C)C(=O)N[C@@H](CCCNC(=N)N)C(=O)N[C@@H](Cc2ccccc2)C(=O)N[C@H](C(=O)O)CSSC[C@@H](C(=O)NCC(=O)N[C@@H](CCSC)C(=O)N[C@@H](CO)C(=O)N[C@H](C(=O)N[C@@H](Cc2c[nH]c3ccccc23)C(=O)N[C@@H](CO)C(=O)O)[C@@H](C)O)NC1=O [AQ1-KGP-Glu^γ-C14-COOH]	0.27
